Assays:
[1] = molecular target: IRAK4 (Homo sapiens (Human), UniProt Q9NWZ3); test: IRAK-4 biochemical kinase assay, AlphaScreen format; settings: 1 nM IRAK4, 1.6 μM peptide, 10 μM ATP, 3.5 h at RT; class symbols
Experimental: The biochemical assay is in a AlphaScreen format. The kinase reaction is based on the IRAK-4 phosphorylation of a biotin labeled peptide. The phosphopeptide is incubated with anti-phosphothreonine antibody as well as streptavidin- and protein A-coated beads. Binding of the protein-A coated beads to the antibody and the streptavidin beads to the peptide, leads to an energy transfer from one bead to the other, ultimately producing a luminescent/fluorescent signal.

[2] = tested on: A549 cells; test: Cell-based assay, IL-6 ELISA quantification in IL-1 beta stimulated A549 cells; settings: 2 ng/ml human IL-1 beta overnight, class symbols, read-out: Celluar Data EC50
Experimental: The cell-based assays is based on IL-6 ELISA quantification. Briefly, A549 cells are cultured in DMEM with 10% FBS medium. When cells reach 80% confluence they are trypsin treated and seeded in 96-well plate at 2.5×10^4 cells/well. Then, 20 ul of compound serial dilutions (starting at 10 uM, 10 points) are added to the cell plate; incubate for 1 hour at 37 C and stimulated with 2 ng/ml human IL-1 beta 37 C overnight. The next day 100 ul of cell supernatant per well are analyzed on a Human IL-6 Quantikine ELISA kit from R&D Systems.

IRAK4, sequence (Q9NWZ3 whole entry, species assumed): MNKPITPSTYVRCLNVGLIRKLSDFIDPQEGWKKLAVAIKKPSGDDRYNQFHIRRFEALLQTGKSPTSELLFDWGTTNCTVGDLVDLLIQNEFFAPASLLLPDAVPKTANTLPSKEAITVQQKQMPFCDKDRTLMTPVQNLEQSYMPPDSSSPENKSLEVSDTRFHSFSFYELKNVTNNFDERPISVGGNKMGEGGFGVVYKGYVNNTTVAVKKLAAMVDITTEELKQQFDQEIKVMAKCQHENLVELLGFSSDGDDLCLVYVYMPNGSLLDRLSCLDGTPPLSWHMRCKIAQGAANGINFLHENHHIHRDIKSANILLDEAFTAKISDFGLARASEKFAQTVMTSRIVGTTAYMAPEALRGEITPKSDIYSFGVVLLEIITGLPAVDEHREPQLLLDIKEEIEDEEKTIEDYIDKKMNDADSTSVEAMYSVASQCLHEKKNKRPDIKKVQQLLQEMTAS

| Compound | IC50 [1] [µM] | EC50 [2] [µM] |
| --- | --- | --- |
| O=C1Nc2cn(CCN3CCOCC3)nc2C(=O)NCCOCCNc2cc(ccn2)-c2nc1cs2 [Example 118] | < 0.1 | < 1 |
| O=C1NC[C@H]2CC[C@@H](C2)OCCCNc2cc(ccn2)-c2nc1cs2 [Example 82] | < 1 | < 10 |
| O=C1Nc2cn(C3CCOCC3)nc2C(=O)NCCCOCCOc2cc(ccn2)-c2nc1co2 [Example 125] | < 0.1 | < 1 |
| Cn1cc2c(n1)C(=O)NCCCCCCNc1cc(ccn1)-c1nc(co1)C(=O)N2 [Compound 32] | < 0.1 | < 1 |
| CN1CCN(CCn2ncc3c2C(=O)NCCOCCNc2cc(ccn2)-c2nc(cs2)C(=O)N3)CC1 [Example 142] | < 1 | > 10 |
| O=C1Nc2cn(CC3CCNCC3)nc2C(=O)NCCOCCOc2cc(ccn2)-c2nc1cs2 [Example 160] | < 1 | > 10 |
| CN1CCN(CCn2cc3c(n2)C(=O)NCCOCCOc2cc(ccn2)-c2nc(cs2)C(=O)N3)CC1 [Example 113] | < 0.1 | < 10 |
| O=C1Nc2cn(C3CCCCO3)nc2C(=O)NCCOCCOc2cc(ccn2)-c2nc1cs2 (centres unmarked) [Example 110] | < 0.1 | < 10 |
| CN(C)CCCn1cc2c(n1)C(=O)NCCOCCOc1cc(ccn1)-c1nc(cs1)C(=O)N2 [Example 138] | < 0.1 | > 10 |
| O=C1Nc2ccncc2C(=O)NCCOCCOc2cc(ccn2)-c2nc1cs2 [Example 129] | < 0.1 | < 1 |
| NC(=O)Cn1cc2c(n1)C(=O)NCCOCCOc1cc(ccn1)-c1nc(cs1)C(=O)N2 [Example 147] | < 1 | > 10 |
| Cn1cc2c(n1)C(=O)NCCCCOc1cc(ccn1)-c1nc(co1)C(=O)N2 [Compound 34] | < 0.1 | < 1 |
| CC(C)(C)OC(=O)N1CCC(CCn2cc3c(n2)C(=O)NCCOCCOc2cc(ccn2)-c2nc(cs2)C(=O)N3)CC1 [Example 154] | < 0.1 | > 10 |
| O=C1Nc2cn(C3CCOCC3)nc2C(=O)NCCCCCc2cc(ccn2)-c2nc1cs2 [Example 95] | < 0.1 | < 1 |
| O=C1Nc2cccnc2C(=O)NCCOCCOc2cc(ccn2)-c2nc1cs2 [Example 128] | < 0.1 | > 10 |
| CN(C)C(=O)Cn1cc2c(n1)C(=O)NCCOCCOc1cc(ccn1)-c1nc(cs1)C(=O)N2 [Example 166] | < 1 | > 10 |
| Cn1cc2c(n1)C(=O)NCCCOCCOc1cc(ccn1)-c1nc(cs1)C(=O)N2 [Example 120] | < 0.1 | < 1 |
| O=C1Nc2cn(C3CCOCC3)nc2C(=O)NCCOCCCn2cc(cn2)-c2nc1cs2 [Example 136] | < 0.1 | < 1 |
| Cn1cc2c(n1)C(=O)NCCOCCCCc1cc(ccn1)-c1nc(cs1)C(=O)N2 [Example 217] | < 0.1 | < 10 |
| CC(C)(C)OC(=O)N1CCN(CCn2cc3c(n2)C(=O)NCCOCCNc2cc(ccn2)-c2nc(cs2)C(=O)N3)CC1 [Example 144] | < 0.1 | < 10 |
| Cn1cc2c(n1)C(=O)NCCOCCNc1cc(ccn1)-c1nc(cs1)C(=O)N2 [Compound 45] | < 0.1 | < 1 |
| O=C1NC[C@@H]2CC[C@@H](C2)OCCCNc2cc(ccn2)-c2nc1cs2 [Example 83] | < 0.1 | < 10 |
| Cn1cc2c(n1)C(=O)NCCOCCc1cc(ccn1)-c1nc(cs1)C(=O)N2 [Example 133] | < 1 | < 10 |
| O=C1Nc2ccccc2C(=O)NCCOCCOc2cc(ccn2)-c2nc1cs2 [Example 127] | < 0.1 | < 1 |
| CC(C)n1cc2c(n1)C(=O)NCCOCCOc1cc(ccn1)-c1nc(cs1)C(=O)N2 [Example 162] | < 0.1 | > 10 |
| O=C1Nc2cn(C3CCOCC3)nc2C(=O)NCCOCCc2cc(ccn2)-c2nc1cs2 [Example 134] | < 0.1 | > 10 |
| CC(C)(C)OC(=O)N1CCC(Cn2cc3c(n2)C(=O)NCCOCCOc2cc(ccn2)-c2nc(cs2)C(=O)N3)CC1 [Example 159] | < 0.1 | < 10 |
| O=C1Nc2ccccc2OCCCCCNc2cc(ccn2)-c2nc1co2 [Compound 2] | < 0.1 | < 1 |
| CC(C)(C)OC(=O)Cn1cc2c(n1)C(=O)NCCOCCOc1cc(ccn1)-c1nc(cs1)C(=O)N2 [Example 137] | < 0.1 | > 10 |
| O=C1Nc2ccccc2OCCCCOCc2cc(ccn2)-c2nc1co2 [Compound 4] | < 0.1 | > 10 |

The next lines start with the values.

| IC50 [1] [µM] | EC50 [2] [µM] | Compound |
| --- | --- | --- |
| < 0.1 | < 10 | O=C1Nc2ccccc2OCCCCCCn2cc(cn2)-c2nc1co2 [Compound 7] |
| < 0.1 | < 10 | Cn1cc2c(n1)C(=O)NCCOCCOc1cc(ccn1)-c1nc(cs1)C(=O)N2 [Compound 43] |
| < 0.1 | < 10 | O=C1Nc2cn(C3CCOCC3)nc2C(=O)NCCCCOc2cc(ccn2)-c2nc1cs2 [Example 90] |
| < 10 | > 10 | O=C1Nc2cnn(CCN3CCNCC3)c2C(=O)NCCOCCOc2cc(ccn2)-c2nc1cs2 [Example 109] |
| < 0.1 | < 1 | Cn1cc2c(n1)C(=O)NCCCCCCCCNc1cc(ccn1)-c1nc(co1)C(=O)N2 [Compound 29] |
| < 0.1 | < 10 | O=C1Nc2cn(CCN3CCNCC3)nc2C(=O)NCCOCCNc2cc(ccn2)-c2nc1cs2 [Example 145] |
| < 1 | > 10 | NC(=O)CCn1cc2c(n1)C(=O)NCCOCCOc1cc(ccn1)-c1nc(cs1)C(=O)N2 [Example 151] |
| < 0.1 | < 10 | O=C1Nc2cn(C3CCOCC3)nc2C(=O)NC2CC(=O)N(CCCc3cc(ccn3)-c3nc1cs3)C2=O (centres unmarked) [Example 200] |
| < 0.1 | < 1 | Cn1cc2c(n1)C(=O)NCCCCNc1cc(ccn1)-c1nc(cs1)C(=O)N2 [Example 131] |
| < 0.1 | < 10 | O=C1Nc2cn(CCN3CCOCC3)nc2C(=O)NCCOCCOc2cc(ccn2)-c2nc1cs2 [Example 112] |
| < 0.1 | < 10 | CC(C)(C)OC(=O)N1CCC(n2cc3c(n2)C(=O)NCCOCCOc2cc(ccn2)-c2nc(cs2)C(=O)N3)CC1 [Example 164] |
| < 0.1 | < 1 | O=C1Nc2cnccc2C(=O)NCCOCCOc2cc(ccn2)-c2nc1cs2 [Example 130] |
| < 0.1 | < 1 | CC(=O)N1CCCc2cc(ccn2)-c2nc(cs2)C(=O)Nc2cn(C3CCOCC3)nc2C(=O)NCC1 [Example 170] |
| < 10 | > 10 | O=C(O)Cn1cc2c(n1)C(=O)NCCOCCOc1cc(ccn1)-c1nc(cs1)C(=O)N2 [Example 146] |
| < 0.1 | < 1 | O=C1Nc2cn(C3CCOCC3)nc2C(=O)NCCOCCNc2cc(ccn2)-c2nc1cs2 [Compound 46] |
| < 0.1 | < 1 | Cn1cc2c(n1)C(=O)NCCOCCCOc1cc(ccn1)-c1nc(cs1)C(=O)N2 [Example 122] |
| < 0.1 | < 1 | O=C1Nc2cn(C3CCOCC3)nc2C(=O)NCCCCNc2cc(ccn2)-c2nc1cs2 [Example 132] |
| < 0.1 | < 1 | O=C1Nc2ccccc2OC(CO)CCCCNc2cc(ccn2)-c2nc1co2 (centres unmarked) [Compound 12] |
| < 0.1 | < 10 | Cn1cc2c(n1)C(=O)NCCCCCc1cc(ccn1)-c1nc(cs1)C(=O)N2 [Example 96] |
| < 1 | > 10 | O=C1CCNC(=O)c2csc(n2)-c2ccnc(c2)OCCOCCN1 [Example 126] |
| < 0.1 | > 10 | CCn1cc2c(n1)C(=O)NCCOCCOc1cc(ccn1)-c1nc(cs1)C(=O)N2 [Example 139] |
| < 0.1 | < 1 | Cn1cc2c(n1)C(=O)NCCC/C=C/CCCNc1cc(ccn1)-c1nc(co1)C(=O)N2 [Example 140] |
| < 0.1 | > 10 | CN1CCCc2cc(ccn2)-c2nc(cs2)C(=O)Nc2cn(C3CCOCC3)nc2C(=O)NCC1 [Example 169] |
| < 0.1 | < 10 | O=C1Nc2cn(CCN3CCNCC3)nc2C(=O)NCCOCCOc2cc(ccn2)-c2nc1cs2 [Example 115] |
| < 0.1 | > 10 | CC(C)(C)OC(=O)N1CCN(CCn2cc3c(n2)C(=O)NCCOCCOc2cc(ccn2)-c2nc(cs2)C(=O)N3)CC1 [Example 114] |

Source: patent publication US9617282B2, “Macrocyclic compounds as IRAK4 inhibitors for the treatment of inflammatory diseases” (BIOGEN MA INC., priority 2013, dated 2017)
